PubChem BioAssay AID179 (DTP/NCI, 2004)
Several values for one entry are separate records, joined by “and”; a condition that tells them apart may be missing. Identical values can stand only once. Activity calls are given as the source filed them.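 The calls were made as follows: active = compounds giving half or more protection of infected cells from virus-caused growth loss, again on retest; inactive = the rest.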 Where a SMILES comes first, the peptide text is derived from it.

Tested on: CEM cells HIV-1 protection, formazan growth assay
Assay: NCI AIDS Antiviral Assay
Details: for IC50: measured here: growth of uninfected CEM cells
Summary of the method: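 Steps: treat uninfected and HIV-1-infected human CEM cells at five drug levels; quantify growth by soluble formazan; retest any compound reaching 50% protection; classify actives from the retest.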

Compound | EC50 | IC50 | outcome
C=C(C)C1Cc2c(cc(O)c3c(=O)c4c(oc23)C(O)Oc2cc(OC)c(OC)cc2-4)O1 (centres undefined) | > 200 µM | 72.4 µM | 
CN1CCN(CCCN2c3ccccc3Sc3ccccc32)CC1 | > 741 µM | 33.1 µM | 
CCOC(=O)C(CC#N)(NC(C)=O)C(=O)OCC | > 200 µM | > 200 µM | 
O=c1nc(NC(c2ccccc2)(c2ccccc2)c2ccccc2)ccn1CCO |  |  | inactive
CC1CC(c2ccccc2)Nc2nc3ccccc3n21 (centres undefined) | > 151 µM | > 151 µM | 
CNC(=O)CNC(=O)C(NC(=O)CNC(=O)C1CCCN1C(=O)C(C)NC(=O)C(NC(C)=O)C(C)C)C(C)C (centres undefined) (Ac-VAPGVG-NHMe; configuration not given here) | > 200 µM | > 200 µM | 
COc1ccc2cc(C(C)C(=O)N3C(=O)OCC3(C)C)ccc2c1 (centres undefined) | > 200 µM | 91.2 µM | 
C=C1CC(c2ccc(OCCCN3C(=O)c4ccccc4C3=O)c(OC)c2)OC1=O (centres undefined) | > 20 µM | 0.912 µM | 
O=c1n(/N=C/c2ccccc2)c(=O)n2n1C1C=CC2CC1 | > 200 µM | > 200 µM | 
OCC1OC(n2cnc3cncnc32)C(O)C1O (centres undefined) |  |  | inactive
COc1ccc2c(=O)c([Se]c3coc4cc(OC)ccc4c3=O)coc2c1 | > 60.3 µM | > 60.3 µM | 
COC1=C(OC)C(O)(c2ccccc2)C1=O (centres undefined) |  |  | inactive
CCOC(=O)c1csc(-c2nc(CCNC(=O)c3ccccc3)sc2Cl)n1 | > 85.1 µM | 44.7 µM | 
COc1ccc2oc3cc(O)cc(OC)c3c(=O)c2c1O | > 200 µM | 145 µM | 
O=C(/C=C/c1ccccc1)CC(=O)CCC(=O)Nc1ccc(Cl)cc1 |  |  | inactive
COC(=O)/C=C/c1cnc2c(c1)oc(=O)n2C | > 200 µM | > 200 µM | 
CCN(CC)Cc1cc(Nc2c3ccccc3nc3c2[nH]c2ccccc23)cc(CN(CC)CC)c1O | > 427 µM | 0.269 µM | 
CC(O)(c1ccccc1)c1ccc2ccccc2n1 (centres undefined) | > 200 µM | 38 µM | 
CCOC(=O)C1Oc2ccc([N+](=O)[O-])c3c2C1(O)CCC3 (centres undefined) |  |  | inactive
O=C1OC2=C(c3ccccc3)C(=O)OC2=C1c1ccccc1 |  |  | inactive
CCCCCCCCCCCCNC1=C(Cl)C(=O)C(=O)c2cccnc21 | 53.7 µM | 174 µM | 
COc1ccc(C(=C2C(=O)N(c3ccccc3)C(=O)C2=C(C)C)c2ccc(OC)cc2)cc1 | > 200 µM | 3.39 µM | 

Compound | EC50 | IC50 | outcome
NC(CSS(=O)(=O)O)=NCCc1ccc(O)cc1 | > 200 µM | > 200 µM | 
CCCCCCCCCCC(C)CCCCCCC(=O)O (centres undefined) |  |  | inactive
CN(CCN)[C@H](CSSC[C@@H](c1ccccc1O)N(C)CCN)c1ccccc1O | > 200 µM | 17.8 µM | 
O=C1[C@H](c2ccccc2)C2c3ccccc3CCN12 (some centres undefined) | > 200 µM | 97.7 µM | 
CC(=O)SCCC1c2[nH]c3ccccc3c2CCN1O (centres undefined) |  |  | inactive
CCC(C)C(NC(=O)C(CCCN=C(N)N)NC(=O)C(CC(=O)O)NC(=O)C(Cc1cnc[nH]1)NC(=O)C(N)CC(C)C)C(=O)NC(C(=O)NC(CC(C)C)C(=O)NCC(=O)NC(CC(=O)O)C(=O)O)C(C)CC (centres undefined) (H-LHDRIILGD-OH; configuration not given here) | > 58.9 µM | > 58.9 µM | 
Cn1ncc2[nH]cnc2c1=S | > 200 µM | 26.9 µM | 
C/C(=C\c1ccccc1)C(=O)c1c(C)cc(C)cc1C | > 38 µM | > 38 µM | 
CC1(C)Oc2ccc3ccc(=O)oc3c2C(O)C1O (centres undefined) | > 200 µM | 115 µM | 
O=[N+]([O-])/C=C/c1c(Cl)cccc1Cl |  |  | inactive
NC(=N\N=C\C(O)C(O)C(O)C(O)C(=O)O)/C(N)=N/N=C/C(O)C(O)C(O)C(O)C(=O)O (centres undefined) |  |  | inactive
O=C(c1nc2ccccc2[nH]c1=O)C(O)c1ccccc1 (centres undefined) | > 468 µM | 151 µM | 
CC(=O)Nc1ccc(C(=O)N2N=C(C)/C(=C/c3cccc(O)c3)C2=O)cc1 | > 138 µM | > 138 µM | 
CCOC(=O)C1=CC(C)(C(=O)OCC)Nc2c(nc(OC)n(C)c2=O)N1 (centres undefined) | > 200 µM | > 200 µM | 
O=C1Cc2ccccc2N1C1c2ccccc2C=Cc2ccccc21 | > 200 µM | 21.4 µM | 
O=C(/C(=C\C(=O)c1cccs1)c1ccsc1)c1ccc(Br)cc1 |  |  | inactive
CCOC(=O)C(N=Nc1ccc(S(N)(=O)=O)cc1)C(C)=O (centres undefined) | > 794 µM | 389 µM | 
CCC(=O)CCCC=C(c1cc(Cl)c(OC)c(C=O)c1)c1cc(Cl)c(OC)c(C=O)c1 | > 200 µM | 1.12 µM | 
O=C(CCc1ccc(O)c(O)c1)NCCc1ccc(O)c(O)c1 | > 200 µM | 9.55 µM | 
Cc1c(-c2coc(-c3ccc([N+](=O)[O-])cc3)n2)c(=O)n(-c2ccccc2)n1C | > 36.3 µM | > 36.3 µM | 
CC1(c2ccccc2)CC12C(=O)NC(=O)NC2=O (centres undefined) | > 107 µM | > 107 µM | 
O=[N+]([O-])/C(C(Cl)=C(Cl)Cl)=C1\NCCO1 | > 200 µM | 115 µM | 

Compound | EC50 | IC50 | outcome
N#CC1=C(N)N(c2ccccc2)C(c2ccccc2)C1(C#N)C#N (centres undefined) | > 200 µM | 14.1 µM | 
CSc1nc(SC)c2nc(Nc3ccccc3)sc2n1 | > 200 µM | 6.17 µM | 
O=c1c(SCc2ccc(Cl)c(Cl)c2)c(SCc2ccc(Cl)c(Cl)c2)cnn1-c1ccccc1 | > 6.76 µM | > 6.76 µM | 
O=C(c1cccc([N+](=O)[O-])c1)c1c(O)c2ccccc2oc1=O | > 200 µM | 95.5 µM | 
CCOc1ccc(NC(=O)C(=O)CC(=O)c2sc(NNC(C)=O)nc2C)cc1 | > 44.7 µM | > 44.7 µM | 
Cc1ccc(SSc2ccc([N+](=O)[O-])cc2)cc1 | > 200 µM | 9.55 µM | 
CC(C)COC(=N)c1ccccc1C1(O)CCCCC1 | > 200 µM | 117 µM | 
CCC(O)C1Cc2c(C)cc3c(c2O1)C(=O)c1ccccc1C3=O (centres undefined) |  |  | inactive
O=S1(=O)c2ccc(cc2)N=CC=Nc2ccc1cc2 | > 33.1 µM | > 33.1 µM | 
C[C@]12CC=CC(=O)[C@@]1(C)CCC(=O)C2 |  |  | inactive
Nc1ccc(S(=O)(=O)Nc2nccs2)cc1N=Nc1ccccc1[N+](=O)[O-] | > 200 µM | > 200 µM | 
COc1ccccc1N=NC(C(=O)c1ccccc1)C(=O)c1ccccc1 | > 52.5 µM | 0.513 µM | 
COC1=NN2C(OC)(c3ccccc3)c3c(-c4ccccc4)sc(-c4ccccc4)c3C2(c2ccccc2)S1 (centres undefined) |  |  | inactive
CC1(C)CCC[C@]2(C)[C@H]3[C@H](C#N)c4cc(O)c(O)cc4O[C@@]3(C)CC[C@@H]12 | > 200 µM | 1.41 µM | 
Cc1nc(-n2nc(-c3ccccc3)cc2-c2ccccc2)sc1C(/C=C\c1ccc([N+](=O)[O-])cc1)=N/NC(=S)NN | > 32.4 µM | > 32.4 µM | 
CC1=Nc2ccccc2NC(C)(C)C1 | > 955 µM | 56.2 µM and 37.2 µM and > 200 µM | 
O=C(c1c(F)c(F)c(F)c(F)c1F)N1CCN(C(=O)c2c(F)c(F)c(F)c(F)c2F)C1=S | > 200 µM | 1.26 µM | 
C=CCC1(Sc2ccccn2)Sc2ccc3ccccc3c2-c2c(ccc3ccccc23)S1 | > 100 µM | > 100 µM | 
Cc1cc(N=Nc2ccc(-c3ccc(N=Nc4ccc(O)c(C(=O)O)c4)cc3)cc2)c(C)cc1N | > 100 µM | 41.7 µM | 
COc1ccc(CCNC(=O)CCc2ccccc2CO)cc1OC | > 200 µM | > 200 µM | 
